Reference: patent US20240246916A1, “7-NITRO-8-HYDROXYQUINOLINE DERIVATIVES, PREPARATION METHOD THEREFORE AND MEDICAL USE THEREOF” (Jiangsu Yahong Meditech Co., Ltd., priority 2021, published 2024)
Values after ≈ are worked out from the molar mass of the structure shown.

Columns and labels:
Type in all cases: cell-based
[1] = system: Acinetobacter baumannii (carbapenem-resistant clinical isolates; ATCC19606); assay: MIC by micro broth dilution (CLSI), Acinetobacter baumannii; settings: for MIC50 / MIC90: ATCC19606, Clinical strain; for MIC50 / MIC90 / MIC: Acinetobacter baumannii; for MIC50: read-out: MIC50; for MIC90: read-out: MIC90; for MIC: Standard strain ATCC19606, read-out: MIC; for inhibitory effect against Acinetobacter baumannii compared with the reference drug nitroxoline: MIC comparison
Method in brief: (§1)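 Duplicate same-patient isolates are excluded and quality control strains are run alongside. Inoculum prepared by direct colony suspension to 0.5 McFarland then diluted 100-fold to reach 10^5 CFU/mL in CAMHB. Drug spans 128 to 0.06 mg/L; incubation lasts 20 hours at 35±2° C.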

[2] = MIC by micro broth dilution (CLSI), Klebsiella pneumoniae; settings: Standard strain
Source text: The test bacteria were one strain of clinically isolated carbapenem-resistant Escherichia coli, two strains of carbapenem-resistant Acinetobacter baumannii, two strains of methicillin-resistant Staphylococcus aureus, two strains of sensitive Staphylococcus aureus, and 7 strains of Klebsiella pneumoniae. Duplicate strains isolated from the same patient were eliminated. There were also […] quality control strains Escherichia coli ATCC25922, Acinetobacter baumannii ATCC19606, Staphylococcus aureus ATCC29213, Klebsiella pneumoniae ATCC BAA-1705, ATCC 43816, ATCC BAA-2472, ATCC-BAA-1898, ATCC-BAA-1899, NCTC 13440 and ATCC-BAA-2470. There were 24 strains in total.
According to the recommendations of relevant documents of the American Clinical and Laboratory Standards Institute (CLSI), the micro broth dilution method was used to determine the MIC of the compounds of the present invention against clinically isolated strains. • 3.1 Formulation of antibacterial drug: All the compounds of the present invention were dissolved in DMSO. The drug concentration range was 128 mg/L to 0.06 mg/L. • 3.2 Culture medium: The drug susceptibility test used cation adjusted Mueller-Hinton broth (CAMHB). • 3.3 Amount of inoculum: The test bacteria cultured overnight were adjusted to 0.5 McFarland turbidity by the direct colony suspension method, and diluted 100 folds, the final inoculum amount was 10^5 CFU/mL. • 3.4 Culture conditions: The test bacteria were cultured at 35±2° C. for 20 hours in air.
The drug susceptibility test results were interpretated by reference to CLSI 2019 M100 29th edition criteria.
The quality control strains of the drug susceptibility test were Escherichia coli ATCC 25922, Acinetobacter baumannii ATCC 19606, Staphylococcus aureus ATCC 29213, Klebsiella pneumoniae ATCC BAA-1705, ATCC 43816, ATCC BAA-2472, ATCC-BAA-1898, ATCC-BAA-1899, NCTC 13440 and ATCC-BAA-2470.
The results of drug susceptibility test were statistically analyzed by WHONET software (version 5.6).

[3] = system: Endothelial cell line HUVEC; assay: Inhibitory activity on cells, CellTiter-Glo viability, HUVEC; settings: Homo sapiens, 72 hours treatment
Method in brief: (§2)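 24 h attachment; HUVEC 2000, UM-UC-3/RM-1 3000, LNCaP 5000 cells/well. 8-pt 2.5× dilution from 100 μmol, 72 h, 37 °C/5% CO2. CellTiter-Glo; IC50 from curve fit; max = cells + DMSO vehicle, min = medium only.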

[4] = system: Bladder cancer cell line UM-UC-3; assay: Inhibitory activity on cancer cells, CellTiter-Glo viability, UM-UC-3; settings: Homo sapiens, UMUC3, 72 hours treatment
Method in brief: as §2

[5] = system: Prostate cancer cell line LNcaP; assay: Inhibitory activity on cancer cells, CellTiter-Glo viability, LNcaP; settings: Homo sapiens, 72 hours treatment
Method in brief: as §2

[6] = system: Escherichia coli (carbapenem-resistant clinical isolate; ATCC25922); assay: MIC by micro broth dilution (CLSI), Escherichia coli; settings: Escherichia coli; for MIC50 / MIC90: ATCC25922, Clinical strain; for MIC50: read-out: MIC50; for MIC90: read-out: MIC90; for MIC: Standard strain ATCC25922, read-out: MIC
Method in brief: as §1

[7] = system: Staphylococcus aureus (methicillin-resistant and sensitive clinical isolates; ATCC29213); assay: MIC by micro broth dilution (CLSI), Staphylococcus aureus; settings: for MIC50 / MIC90: Clinical strain; for MIC50: read-out: MIC50; for MIC90: read-out: MIC90; for MIC: Standard strain ATCC29213, read-out: MIC
Method in brief: as §1

[8] = system: Mouse prostate cancer cell line RM1; assay: Inhibitory activity on cancer cells, CellTiter-Glo viability, RM1; settings: 72 hours treatment
Method in brief: as §2

SMILES	MIC50 [1]	MIC90 [1]	MIC50 [2]	MIC90 [2]	IC50 [4]	IC50 [5]	MIC50 [6]	MIC90 [6]	MIC [6]	MIC50 [7]	MIC90 [7]	MIC [1]	IC50 [8]	MIC [7]	IC50 [3]	inhibitory effect against Acinetobacter baumannii compared with the reference drug nitroxoline [1]
O=[N+]([O-])c1cc(I)c2cccnc2c1O [Example 3, 5-Iodo-7-nitroquinolin-8-ol]	> 64 µg/mL	> 64 µg/mL	> 64 µg/mL	> 64 µg/mL	–	–	–	–	–	–	–	–	–	–	–	–
O=[N+]([O-])c1cc(Cl)c2c(C3CCCCC3)ccnc2c1O [Example 64, 5-Chloro-4-cyclohexyl-7-nitroquinolin-8-ol]	> 128 µg/mL	> 128 µg/mL	–	–	1.24 µM	0.22 µM	> 128 µg/mL	> 128 µg/mL	> 128 µg/mL	0.5 µg/mL (≈ 1.63 µM)	1 µg/mL (≈ 3.26 µM)	> 128 µg/mL	0.86 µM	0.5 µg/mL (≈ 1.63 µM)	0.44 µM	–
CCOC(=O)C1CCN(c2ccnc3c(O)c([N+](=O)[O-])cc(Cl)c23)CC1 [Example 46, Ethyl 1-(5-chloro-8-hydroxy-7-nitroquinolin-4-yl)piperidine-4-carboxylate]	> 128 µg/mL	> 128 µg/mL	–	–	0.96 µM	0.88 µM	> 128 µg/mL	> 128 µg/mL	> 128 µg/mL	32 µg/mL (≈ 84.3 µM)	64 µg/mL (≈ 169 µM)	> 128 µg/mL	1.86 µM	32 µg/mL (≈ 84.3 µM)	0.56 µM	–
Cl.O=[N+]([O-])c1cc(Cl)c2c(OCc3ccccc3)ccnc2c1O [Example 67, 4-(benzyloxy)-5-chloro-7-nitroquinolin-8-ol hydrochloride]	> 128 µg/mL	> 128 µg/mL	–	–	9.28 µM	8.68 µM	> 128 µg/mL	> 128 µg/mL	> 128 µg/mL	1 µg/mL	64 µg/mL	> 128 µg/mL	13.2 µM	2 µg/mL	3.23 µM	–
CC(C)(C)C(=O)N1CCN(c2ccnc3c(O)c([N+](=O)[O-])cc(Cl)c23)CC1 [Example 45, 4-(5-Chloro-8-hydroxy-7-nitroquinolin-4-yl)-1-(2,2,2-trimethylacetyl)piperazine]	> 128 µg/mL	> 128 µg/mL	–	–	23.6 µM	5.43 µM	> 128 µg/mL	> 128 µg/mL	> 128 µg/mL	> 128 µg/mL	> 128 µg/mL	> 128 µg/mL	12.1 µM	> 128 µg/mL	10.1 µM	–

The remaining compounds from weak to strong by MIC50 [1], led by results:

MIC50 [1]	MIC90 [1]	MIC50 [2]	MIC90 [2]	IC50 [4]	IC50 [5]	MIC50 [6]	MIC90 [6]	MIC [6]	MIC50 [7]	MIC90 [7]	MIC [1]	IC50 [8]	MIC [7]	SMILES	IC50 [3]	inhibitory effect against Acinetobacter baumannii compared with the reference drug nitroxoline [1]
128 µg/mL (≈ 481 µM)	> 128 µg/mL	–	–	1.99 µM	2.31 µM	128 µg/mL (≈ 481 µM)	128 µg/mL (≈ 481 µM)	> 128 µg/mL	2 µg/mL (≈ 7.51 µM)	32 µg/mL (≈ 120 µM)	128 µg/mL (≈ 481 µM)	2.3 µM	2 µg/mL (≈ 7.51 µM)	O=[N+]([O-])c1ccc2c(-c3ccccc3)ccnc2c1O [Example 22, 4-Phenyl-7-nitroquinolin-8-ol]	1.46 µM	–
8 µg/mL (≈ 39.2 µM)	8 µg/mL (≈ 39.2 µM)	32 µg/mL (≈ 157 µM)	64 µg/mL (≈ 313 µM)	3.88 µM	5.97 µM	16 µg/mL (≈ 78.4 µM)	64 µg/mL (≈ 313 µM)	8 µg/mL (≈ 39.2 µM)	4 µg/mL (≈ 19.6 µM)	4 µg/mL (≈ 19.6 µM)	–	–	–	Cc1cc2cccnc2c(O)c1[N+](=O)[O-] [Example 2, 6-Methyl-7-nitroquinolin-8-ol]	7.06 µM	–
8 µg/mL	32 µg/mL	–	–	5.04 µM	2.31 µM	8 µg/mL	64 µg/mL	8 µg/mL	1 µg/mL	2 µg/mL	2 µg/mL	2.63 µM	1 µg/mL	Cl.O=[N+]([O-])c1cc(Cl)c2c(C(F)(F)F)ccnc2c1O [Example 73, 5-chloro-7-nitro-4-(trifluoromethyl)-quinolin-8-ol hydrochloride]	3.45 µM	comparable to that of the reference drug nitroxoline
4 µg/mL (≈ 16.5 µM)	8 µg/mL (≈ 33 µM)	–	–	17.5 µM	5.38 µM	8 µg/mL (≈ 33 µM)	32 µg/mL (≈ 132 µM)	8 µg/mL (≈ 33 µM)	2 µg/mL (≈ 8.24 µM)	4 µg/mL (≈ 16.5 µM)	2 µg/mL (≈ 8.24 µM)	5.19 µM	4 µg/mL (≈ 16.5 µM)	O=[N+]([O-])c1cc(F)c2c(Cl)ccnc2c1O [Example 68, 4-Chloro-5-fluoro-7-nitroquinolin-8-ol]	10 µM	comparable to that of the reference drug nitroxoline
